Tests used:
Dopamine receptor = test: Inhibition of apomorphine induced climbing in the mouse (central dopamine receptor blocking activity); type: in vivo; conditions: apomorphine 1 mg/kg s.c.
dog = test: Anti-emetic activity in the dog (apomorphine-induced vomiting); type: in vivo; conditions: for ED50: Canis lupus familiaris, sc, 30 minutes prior to apomorphine HCl 0.1 mg/kg subcutaneously, vomiting response
Procedure: Compounds were administered subcutaneously 30 minutes prior to administration of a standard dose of apomorphine HCl (0.1 mg/kg subcutaneously) and the vomiting response compared to that obtained when the same animals were dosed with apomorphine HC1 and vehicle only.

Heidenhain pouch = Heidenhain pouch test (gastric motility enhancing activity); type: in vivo, Male Beagle dogs; conditions: Beagle dogs; for period of activity: Heidenhain pouch
rats = test: Increase in intragastric pressure (gastric motility enhancing activity); type: in vivo; conditions: 0.5 mg/kg s.c.; conscious restrained rats; average height of pressure waves, 40 minutes post dose vs pre-dose, Student's t test
Procedure: Intragastric pressure changes were recorded from previously starved conscious but restrained rats using a saline filled catheter inserted into the lumen of the stomach via a permanent gastric fistula. The catheter was connected to a physiological pressure transducer and pressure changes recorded on a hot wire pen recorder. In each animal a pre-dose period of 40 minutes was allowed to obtain a measure of spontaneous activity. An index of activity was obtained by measuring the average height of pressure waves during 10 minute periods. Values for 4 such periods were obtained during assessment of spontaneous activity and for 40 minute period after administration of compound. Student's "t" test was applied to the difference in average values obtained for spontaneous and post compound activity.

## CN(C)c1ccc(S(=O)(=O)N(C)C)cc1C(=O)N[C@@H]1C[C@H]2CC[C@@H](C1)N2Cc1ccccc1 [Example 2, 2-Dimethylamino-5-dimethylaminosulphonyl-ls(3'6-(8'-benzyl-8'-azabicyclo{3.2.1]octyl)]-benzamide]
Dopamine receptor; dose of 10 mg/kg s.c.
  inhibition of apomorphine induced climbing: inactive
dog
  ED50: 0.1 mg/kg
Heidenhain pouch; dose of 0.5 mg/kg s.c.
  motility of the pouch (activity): active

## CNc1ccc(S(=O)(=O)N(C)C)cc1C(=O)N[C@@H]1C[C@H]2CC[C@@H](C1)N2Cc1ccccc1 [Example 3, 5-Dimethylaminosulphonyl-2-methylamino-N(3'β(8'-benzyl-8'-azabicyclo{3.2.1}octyl)]benzamide]
Dopamine receptor; dose of 25 mg/kg s.c.
  inhibition of apomorphine induced climbing: inactive
Heidenhain pouch
  period of activity: greater than 1 hour
Heidenhain pouch; dose of 0.1 mg/kg s.c.
  motility of the pouch (activity): active
rats
  index of activity post administration: significantly increased

## CCOC(=O)N(C)c1ccc(S(=O)(=O)N(C)C)cc1C(=O)N[C@@H]1C[C@H]2CC[C@@H](C1)N2Cc1ccccc1 [Example 4, 5-Dimethylaminosulphonyl-2-(N-methyl-N-ethoxycarbonyl)amino-N [3'8-(8'-benzyl-8'-azabicyclo{3.2.1]octyl)] benzamide]
Dopamine receptor; dose of 10 mg/kg s.c.
  inhibition of apomorphine induced climbing: inactive

## CCNc1ccc(S(=O)(=O)N(C)C)cc1C(=O)N[C@@H]1C[C@H]2CC[C@@H](C1)N2Cc1ccccc1 [Example 5, 5-Dimethylaminosulphonyl-2-ethylamino-N[3 ε'-(8' -benzyl-8' -azabicyclo'{3.2.1)octyl)]-benzamide]
Dopamine receptor; dose of 10 mg/kg s.c.
  inhibition of apomorphine induced climbing: inactive
rats
  index of activity post administration: significantly increased

## CN(C)S(=O)(=O)c1ccc(NC2CC2)c(C(=O)N[C@@H]2C[C@H]3CC[C@@H](C2)N3Cc2ccccc2)c1 [Example 6]
Dopamine receptor; dose of 10 mg/kg s.c.
  inhibition of apomorphine induced climbing: inactive
dog
  ED50: 0.5 mg/kg
Heidenhain pouch
  period of activity: greater than 1 hour
Heidenhain pouch; dose of 0.5 mg/kg s.c.
  motility of the pouch (activity): active
rats
  index of activity post administration: significantly increased

## CNc1cccc(OC)c1C(=O)N[C@@H]1C[C@H]2CC[C@@H](C1)N2Cc1ccccc1 [Example 12, 2-Methylamino-6-methoxy-N-[3β-(8-benzyl-8-azabicyclo (3,2,1)octyl)]benzamide]
dog; dose of 0.01 mg/kg s.c., apomorphine HCl 0.1 mg/kg subcutaneously
  anti-emetic activity: active

— patent publication EP0102195A2, “Substituted aza bicycloalkyl derivatives with dopamine antagonist activity” (BEECHAM GROUP PLC, priority 1982, dated 1984)
